Experimental data: publication PMC3838641 (Biochemistry, 2013)

Columns and labels:
[1] = molecular target: T1, orotidine 5'-monophosphate decarboxylase (ScOMPDC) (Saccharomyces cerevisiae, UniProt P03962, R235A); assay: UV decarboxylation kinetics of truncated substrate; assay type: biochemical
T1 sequence (P03962 2-267 R235A): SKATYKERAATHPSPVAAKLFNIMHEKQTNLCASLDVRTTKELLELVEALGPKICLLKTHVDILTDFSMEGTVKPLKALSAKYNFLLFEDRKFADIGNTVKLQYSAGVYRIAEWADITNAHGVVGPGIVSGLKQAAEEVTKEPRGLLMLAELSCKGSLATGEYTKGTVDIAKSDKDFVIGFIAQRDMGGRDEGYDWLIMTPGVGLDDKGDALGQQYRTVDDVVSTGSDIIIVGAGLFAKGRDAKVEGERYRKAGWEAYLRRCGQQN

[2] = molecular target: T1, orotidine 5'-monophosphate decarboxylase (ScOMPDC)
[3] = molecular target: T1, orotidine 5'-monophosphate decarboxylase (ScOMPDC); assay: […] NMR deuterium exchange kinetics with purified enzyme, Michaelis-Menten fit; assay type: biochemical

## O=C(O)c1c(F)c(=O)[nH]c(=O)n1[C@@H]1OC[C@@H](O)[C@H]1O [FEO, 1-(β-D-erythrofuranosyl)-5-fluoroorotic acid]
[1]
  FEO + HPO3^2- / (kcat/Km)E: 12 M⁻¹ s⁻¹

## O=[PH](O)O [HPO3^2−, phosphite dianion]
[2]
  FEO + HPO3^2- / (kcat/Km)E•HPi/Kd (M^-2 s^-1): 250 ± 15 M^−2 s^−1

## O=c1[nH]c(=O)n([C@@H]2O[C@H](COP(=O)(O)O)[C@@H](O)[C@H]2O)cc1F [h-FUMP, 5-fluorouridine 5'-monophosphate]
[3]
  Kd: 5 mM
